# In US20130172246A1, “INSULIN GLARGINE VERSUS METFORMIN FOR THE FIRST-LINE TREATMENT OF EARLY TYPE-2 DIABETES” (priority 2011, published 2013):
# System: type 2 diabetes patients
# Assay: Continuous glucose monitoring (CGM) with standardized test meal, clinical trial insulin glargine vs. metformin
# Format: in vivo, human
# Parameters: AUC 2hpp value after a test meal - Visit 1 / AUC 2hpp value after a test meal - Visit 8 / AUC day 2 - visit 8 / AUC day 2 - change / AUC day 3 - visit 8 / AUC day 3 - change / AUC 2 h incremental after TM - visit 8 / AUC 2 h incremental after TM - change / AUC between 5.6 and fasting on day 2 - visit 8 / AUC between 5.6 and fasting on day 2 - change / AUC between 5.6 and fasting on day 3 - visit 8 / AUC between 5.6 and fasting on day 3 - change / AUC 2 h after test meal - visit 8 / AUC 2 h after test meal change: unit not given beside the values
# Settings: for Glycemic load - visit 8: (FG+Peak+2hppG)·⅓; for Glycemic load - visit 8 / MAGE - visit 8 / AUC day 2 - change / AUC day 2 - visit 8 / AUC day 3 - change / AUC day 3 - visit 8 / AUC between 5.6 and fasting on day 2 - change / AUC between 5.6 and fasting on day 3 - change / AUC 2 h after test meal change / AUC 2 h incremental after TM - change / Glycemic load - change / MAGE - change / AUC 2 h after test meal - visit 8 / AUC between 5.6 and fasting on day 2 - visit 8 / AUC between 5.6 and fasting on day 3 - visit 8 / AUC 2 h incremental after TM - visit 8: per protocol; for Glycemic load - visit 8 / MAGE - visit 8 / AUC day 2 - visit 8 / AUC day 3 - visit 8 / AUC 2 h after test meal - visit 8 / AUC between 5.6 and fasting on day 2 - visit 8 / AUC between 5.6 and fasting on day 3 - visit 8 / AUC 2 h incremental after TM - visit 8: week 36; for Glycemic load - visit 8 / AUC 2hpp value after a test meal - Visit 1 / MAGE - visit 8 / AUC 2 h after test meal change / AUC 2 h incremental after TM - change / Glycemic load - change / MAGE - change / AUC 2 h incremental after TM - visit 8 / AUC 2hpp value after a test meal - Visit 8: mean (SD); for fall of the total area under the curve (AUC-IG): CGM, p=0.04; for fall of the total area under the curve (AUC-IG) / decrease in the interstitial glucose level during CGM (Δ): start to end of study; for AUC 2hpp value after a test meal - Visit 1: baseline (week 0) before treatment; for MAGE - visit 8: mean amplitude of glycemic excursions; for AUC day 2 - change / AUC day 2 - visit 8: CGM day 2; for AUC day 2 - change / AUC day 3 - change / AUC between 5.6 and fasting on day 2 - change / AUC between 5.6 and fasting on day 3 - change / AUC 2 h after test meal change / AUC 2 h incremental after TM - change / Glycemic load - change / MAGE - change: change visit 1 to visit 8; for AUC day 2 - change / AUC day 2 - visit 8 / AUC day 3 - change / AUC day 3 - visit 8 / AUC between 5.6 and fasting on day 2 - change / AUC between 5.6 and fasting on day 3 - change / AUC 2 h after test meal - visit 8 / AUC between 5.6 and fasting on day 2 - visit 8 / AUC between 5.6 and fasting on day 3 - visit 8: mean; for AUC day 3 - change / AUC day 3 - visit 8: CGM day 3; for decrease in the interstitial glucose level during CGM (Δ): GLA vs. MET p=0.02; for AUC 2hpp value after a test meal - Visit 8: week 36 of treatment
# Description: The primary target variable determined was the Area Under the Curve (AUC) in mmol/L/time in subcutaneous abdominal fat after a test meal (TM) in a 2-hour course, which was determined by continuous blood glucose monitoring. The test meal was administered on the 2nd day of the CGM as breakfast. • AUC [mmol/L/time] 2 h pp
# CGMS: The system used for continuous glucose monitoring is the CGMS from Medtronic, CGMS® System Gold™ monitor/MiniMed glucose subcutaneous sensor. The system is authorized for continuous glucose monitoring over a period of 72 h. The measurement sensor is inserted into subcutaneous fat tissue with the aid of an applicator. The entire sensor is stuck on the skin using a plaster. This is followed by the calibration of the device for approximately 5 hours, during which the subcutaneous levels are synchronized with the capillary blood glucose levels. Over the course of 72 h, further calibrations are required, as recommended by the manufacturer. The measured data of the sensor are transmitted by means of radio frequency to the CGMS® System Gold™ monitor, which is worn on the belt for example. After completion of the measurement period, the sensor is removed and the data of the monitor are evaluated on the computer using the software. For the evaluation, only the measured data of the first 48 hours are used, since the accuracy of measurement decreases over the course of the third day.
# Test meal: On the morning of the 2nd day of the CGM, there is a standardized test meal in the trial center. This test meal (TM) consists of 95 g of whole-wheat bread, 20 g of margarine, 25 g of fruit preserves, 25 g of cheese, 200 ml of orange juice, 200 ml of milk mix with banana, strawberry or cocoa with a total of 560 Kcal. Blood is taken from the patient prior to the TM (after night-time fasting period of at least 8 hours). Subsequently, the TM should be eaten within 15 min. From the 1st bite, the time is measured, and after 2 h have elapsed, a 2nd blood collection is performed. During the TM and during the two hours thereafter, the patient should move as little as possible so as not to falsify the monitoring.
# The primary target variable is the AUC (BG) TM of the glucose concentration in subcutaneous abdominal fat after a standardized test meal over a period of 2 hours. The AUC is calculated accordina to the trapezoidal rule.
# • Mean HbA1c, • Glycemic variability: • Standard deviation (SD) of the mean glucose concentration over 24 h (day 2), • MAGE—mean amplitude of glycemic excursion calculated as the mean from the glucose increases>1 SD of the mean glucose concentration over the course of 24 h • Glycemic load calculated by (FG+Peak+2hppG)·⅓ • Mean of C-peptide and intact proinsulin (fasting and 2 h pp) • Mean free fatty acids • Biomarkers of subclinical inflammation (hsCRP, PAI-1, leukocyte count fasting and 2 h postprandial) • Microalbuminuria (albumin/creatinine ratio) • Endothelial function at ball of thumb using laser Doppler (O2C) • Hypoglycemic intervals (time<3 mmol glucose) during CGM over 48 hours (day 2+3 after TM)
# In the study in the previous examples, 75 patients (45 men, 30 women, mean age: 60.7±9.2 years) were examined, whose first diagnosis of type 2 diabetes dated back to less than 5 years and whose HbA1c level was between 6.5 and 8.5%. The patients were treated with either metformin (MET, 1000 mg b.i.d. (n=3)) or insulin glargine (GLA) q.d. just before bedtime (n=3). The insulin dose was adjusted for a target plasma glucose concentration (FPG) of ≦5.6 mmol/L according to a standardized titration algorithm. At the start and end of the study, the HbA1c level and the plasma glucose, proinsulin and C-peptide concentrations were determined. […] All the patients received a standardized test meal on the second day of the continuous glucose monitoring for comparison of the interindividual postprandial (pp) glucose excursions.
Compound,Glycemic load - visit 8,fall of the total area under the curve (AUC-IG),AUC 2hpp value after a test meal - Visit 1,MAGE - visit 8,AUC day 2 - change,AUC day 2 - visit 8,AUC day 3 - change,AUC day 3 - visit 8,AUC between 5.6 and fasting on day 2 - change,AUC between 5.6 and fasting on day 3 - change,AUC 2 h after test meal change,AUC 2 h incremental after TM - change,Glycemic load - change,MAGE - change,AUC 2 h after test meal - visit 8,AUC between 5.6 and fasting on day 2 - visit 8,AUC between 5.6 and fasting on day 3 - visit 8,AUC 2 h incremental after TM - visit 8,decrease in the interstitial glucose level during CGM (Δ),AUC 2hpp value after a test meal - Visit 8,also measured
CN(C)C(=N)N=C(N)N [Metformin],8.5 (2.1),416.1 ± 537.6 mmol·min/L,256.50 (72.837),6.3 (2.4),−416.1,1978.5,−411.5,1972.5,−356.5,−317.4,−42.9 (73.1),−5.8 (31.8),−1.7 (2.7),−0.8 (3.3),213.6,−15.4,41.1,49.6 (25.0),1.4 ± 1.8 mmol/L,213.61 (52.844),–
Insulin glargine,8.8 (1.6),671.2 ± 507.9 mmol·min/L,287.38 (67.235),8.0 (2.3),−671.2,2000.3,−628.2,2045.0,−565.4,−571.5,−63.0 (5.4),−5.7 (40.4),−2.7 (1.9),−0.4 (3.4),224.4,−58.5,−11.6,68.3 (24.6),2.4 ± 1.8 mmol/L,224.38 (40.048),postprandial plasma glucose two hours after a test meal and differences in AUC-IG after the test meal (GLA vs. MET): showed no significance
